According to article PMC5626781, “A Potent Tartrate Resistant Acid Phosphatase Inhibitor to Study the Function of TRAP in Alveolar Macrophages” (Scientific Reports, 2017):

System: RAW264.7 macrophages
Test: Transwell migration, osteopontin-coated membrane
Format: cell-based, mouse
Details: AubipyOMe 80 nM, 5-PNA 100 μM
Method: Migration of RAW264.7 macrophages was assessed using a transwell-culturing system with inserts (Sigma-Aldrich) coated with osteopontin (10 μg/ml, R&D). Bovine collagen-coated inserts (10 μg/ml, Advanced Biometrix, Carlsbad, USA) were used as matrix control. Cells were incubated with or without RANKL (200 ng/ml) for 72 hours to induce TRAP activity or not[75], in the presence or absence of AubipyOMe (80 nM) in quadruplicate. The previously described TRAP inhibitor 5-PNA (100 μM) was used as selective positive control for TRAP inhibition[15],[23]. The number of cells migrated to the lower well, including dead cells, was calculated relative to control cells and individual experiments were done at least six times. […]
Transwell experiment to assess macrophage migration
Migration of RAW264.7 macrophages was assessed using a transwell-culturing system with inserts (Sigma-Aldrich) coated with osteopontin (10 µg/ml, R&D). Bovine collagen-coated inserts (Advanced Biometrix, Carlsbad, USA) were used as a matrix control. RAW264.7 macrophages, pre-stimulated with 200 ng/ml RANKL for 72h to induce TRAP activity16, were seeded on 8 µm pore inserts coated with osteopontin (10 µg/ml, 250,000 cells/well) or collagen (10 μg/ml, 250,000 cells/well). Cells were cultured for 16h in the presence or absence of AubipyOMe (80 nM) in quadruplicate. The previously described TRAP inhibitor 5-PNA (100 µM) was used as selective positive control for TRAP inhibition12,17. The number of cells migrated to the lower well, including dead cells, was calculated relative to control cells and individual experiments were done at least six times. […]

COc1ccnc(-c2cc(OC)ccn2)c1.F[P-](F)(F)(F)(F)F.[Cl][Au+][Cl] [AubipyOMe, [Au(4,4′-dimethoxy-2,2′-bipyridine)Cl2][PF6]] was tested, and the “migration of RANKL-pretreated macrophages through osteopontin-coated membrane” value (RANKL 200 ng/ml 72 h, versus RANKL alone) was “significantly less migration” and the “migration through osteopontin-coated membrane, inhibitor alone” value (no RANKL) was “did not affect migration”.
